Assay results reported in patent publication US20210230134A1, “VITAMIN E DERIVATIVES AND THEIR USE AS MULTI-SCALE IMAGING AGENTS” (EXACT DELIVERY INC., priority 2018, published 2021).

Assays:
[1] = test system: C2C12 mouse myoblasts; assay: MTT tetrazolium reduction viability assay, C2C12 myoblasts; format: cell-based; settings: 24 h; for viability (formazan absorbance at 570 nm, MTT): 1 nM to 1 mM, vs 0.1% DMSO vehicle
Experimental: (§1) C2C12 mouse myoblasts and mouse embryonic fibroblasts (MEFs) were cultured in DMEM supplemented with 10% (v/v) FBS, 4500 mg/L glucose, 4 mM L-glutamine, 1 mM sodium pyruvate, 2% (v/v) MEM nonessential amino acid solution, and penicillin (50 I.U./mL)/streptomycin (50 μg/mL) solution (complete media). Cells were cultured in a humidified 5% CO2 atmosphere within a Thermo Forma Series II water-jacketed CO2 incubator maintained at 37° C. Cells were transferred to fresh 96- or 6-well plates (2,000 cells/well & 60,000 cells/well, respectively) in the evening prior to commencing tocopherol treatments.
(§2) Each tocopherol was dissolved in sterile 100% DMSO to yield a 1 M stock solution. Less concentrated stock solutions were subsequently prepared using ten-fold serial dilutions. All tocopherol solutions were stored at −20° C. To treat cultured cells, media was replaced with complete media containing freshly-added tocopherol; the final amount of vehicle (DMSO) for all concentrations tested was 0.1% (v/v).
(§3) Media was discarded, wells were washed once with phenol red-free complete culture media, and 100 μL/well phenol red-free complete culture media containing 0.45 mg/mL MTT was added. Two hours later, solubilization solution [40% (v/v) dimethylformamide, 2% (v/v) glacial acetic acid, 16% (w/v) sodium dodecyl sulfate, pH 4.7] was added (100 μL/well) and well contents were gently mixed by re-suspension to dissolve the formazan precipitate. Plates were incubated at room temperature in darkness for 2 h before recording absorbance at 570 nm using a Bio-Tek PowerWave Microplate UV-Vis spectrophotometer (Winooski, Vt., USA). For each plate, background signal averaged from cell-free wells containing vehicle treatments was subtracted
as §3, with “subtracted.” for “subtracted”

[2] = test system: mouse embryonic fibroblasts (MEFs); assay: MTT tetrazolium reduction viability assay, MEFs; format: cell-based; settings: 24 h; for viability (formazan absorbance at 570 nm, MTT): 1 nM to 1 mM, vs 0.1% DMSO vehicle
Experimental: as §1, §2, §3
as §3, with “subtracted.” for “subtracted”

[3] = biological target: T1, α-TTP (α-tocopherol transfer protein) (Homo sapiens, UniProt P49638); assay: Competitive displacement of TBtoc from pre-incubated complex with α-TTP; format: binding; settings: 0.4 μM TBtoc pre-incubated with 0.4 μM α-TTP; competitor in dioxane; TKE buffer
T1 sequence (P49638 1-278): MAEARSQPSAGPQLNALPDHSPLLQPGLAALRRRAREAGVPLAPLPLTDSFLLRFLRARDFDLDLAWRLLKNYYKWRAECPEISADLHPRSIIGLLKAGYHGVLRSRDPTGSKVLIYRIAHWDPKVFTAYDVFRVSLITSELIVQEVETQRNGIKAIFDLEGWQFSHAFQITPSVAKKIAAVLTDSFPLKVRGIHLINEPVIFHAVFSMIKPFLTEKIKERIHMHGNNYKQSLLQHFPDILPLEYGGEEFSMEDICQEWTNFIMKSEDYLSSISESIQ
Experimental: When α-TTP is pre-incubated with TBtoc, competitive assays are possible by the incremental addition of a specific ligand such as natural α-tocopherol. Cholesterol served as a negative control (FIG. 5). About 57% of the bound fluorescence could be competed of α-TTP by α-tocopherol, whereas only about 8% was lost with cholesterol.

SMILES	viability (formazan absorbance at 570 nm, MTT) [1]	cytotoxic concentration (no cytotoxicity up to stated concentration) ([1]; MTT)	viability (formazan absorbance at 570 nm, MTT) [2]	cytotoxic concentration (no cytotoxicity up to stated concentration) ([2]; MTT)	bound fluorescence competed off α-TTP [3]
Cc1c(C)c2c(c(C)c1[19F])CC[C@@](C)(CCC[C@H](C)CCC[C@H](C)CCCC(C)C)O2 [F-Toc]	no sensitivity	> 1 mM	no sensitivity	> 1 mM	–
Cc1c(C)c2c(c(C)c1I)CC[C@@](C)(CCCC(C)CCCC(C)CCCC(C)C)O2 (stereo partly drawn) [I-Toc, (2R)-6-iodo-2,5,7,8-tetramethyl-2-(4.8.12-trimethyl-tridecyl)-chroman]	no negative sensitivity	–	no negative sensitivity	–	–
CC(C)CCC[C@@H](C)[C@H]1CC[C@H]2[C@@H]3CC=C4C[C@@H](O)CC[C@]4(C)[C@H]3CC[C@]12C [cholesterol]	–	–	–	–	about 8%
Cc1c(C)c2c(c(C)c1O)CC[C@@](C)(CCC[C@H](C)CCC[C@H](C)CCCC(C)C)O2 [α-tocopherol, reference compound]	no sensitivity	–	no sensitivity	–	About 57%
